Reference: patent US10507207B2, “Non-nucleosidic inhibitors of reverse transcriptase as antagonists of cell proliferation and inducers of cell differentiation” (ISTITUTO SUPERIORE DI SANITA, priority 2001, dated 2019)

How the values were obtained:
[1] = tested on: early mouse embryos; experiment: Early mouse embryo cultures from in vitro fertilization (IVF) assays; conditions: added to cultures of IVF embryos; preliminary studies
[2] = tested on: HT-29 colon carcinoma cells; experiment: Cell proliferation by cell counting; assay type: cell-based, human; conditions: 350 μM nevirapine
Excerpt: Samples were withdrawn at specific times and cells were counted in nevirapine-exposed and control (DMSO-exposed) cultures. […] Saos-2 osteosarcoma cells were the most slowly responsive type, and only after 5 days of exposure did the growth rate begin to decrease compared to control cultures.

[3] = tested on: HT-29; experiment: FACS cell cycle analysis; assay type: cell-based, human; conditions: after 72 h of nevirapine treatment
Excerpt: (§1) FIG. 3A. Cell cycle analysis in control and nevirapine-exposed cells. […] In the U343 glioma cell line, the cell cycle was separately analysed in the diploid cell fraction (representing about ⅔ of all cells) and in the remaining fraction (about ⅓) which develops aneuploidy. FIG. 3B. […] The filter was reprobed with anti-actin antibody to control equal loading (lower panel).

[4] = tested on: MCF-7; experiment: FACS cell cycle analysis; assay type: cell-based, human; conditions: after 72 h of nevirapine treatment
Excerpt: as §1

[5] = tested on: U343 Mg; experiment: FACS cell cycle analysis; assay type: cell-based, human; conditions: after 72 h of nevirapine treatment
Excerpt: as §1

[6] = tested on: cyclin D1 in NIH/3T3; experiment: Western immunoblotting of cyclin D1; assay type: cell-based, murine; conditions: 72 h nevirapine vs non-exposed controls
Excerpt: as §1

[7] = tested on: cyclin D1 in HT-29; experiment: Western immunoblotting of cyclin D1; assay type: cell-based, human; conditions: 72 h nevirapine vs non-exposed controls
Excerpt: as §1

[8] = tested on: cyclin D1 in MCF-7; experiment: Western immunoblotting of cyclin D1; assay type: cell-based, human; conditions: 72 h nevirapine vs non-exposed controls
Excerpt: as §1

[9] = tested on: cyclin D1 in U343 Mg glioma; experiment: Western immunoblotting of cyclin D1; assay type: cell-based, human; conditions: 72 h nevirapine vs non-exposed controls, data not shown
Excerpt: as §1

[10] = tested on: C2C7 myogenic satellite cells; experiment: Differentiation of C2C7 myogenic cells (myotube scoring, MHC immunofluorescence); assay type: cell-based, murine; conditions: nevirapine pre-treatment, differentiation medium 48 h, anti-MHC IF
Excerpt: FIG. 4C, 60× magnification of myotubes in A. FIG. 4D, 60× magnification of myotubes in B. FIG. 4E, 60× magnification of MHC-positive myoblasts in the field in B.
Murine C2C7 myogenic satellite cells, which proliferate as mononucleated myoblasts can be induced to differentiate upon growth factor withdrawal and form multinucleated myotubes that express muscle-specific genes. […] By light-field microscopy scoring (n=300 cells from randomly selected fields), the ratio between multinucleated myotubes (i.e., cells with more than three nuclei) and mono/binucleated cells was about 1:1 in nevirapine-treated compared to 1:2 in untreated samples. Cells monolayers were further analyzed by immunofluorescence (IF) using a polyclonal antibody to myosin heavy chain (MHC), a late marker of muscle differentiation.

[11] = tested on: teratocarcinoma F9 cells; experiment: Differentiation of F9 cells (morphology, collagen type IV immunofluorescence); assay type: cell-based, murine; conditions: IF after 96 h
Experimental: After 96 h, samples were fixed and processed for IF of collagen type IV (α1) chain (FIG. 5c, FIG. 5g, FIG. 5k) and DAPI staining of nuclei (FIG. 5b, FIG. 5f, FIG. 5j); pictures are merged in FIG. 5d, FIG. 5h and FIG. 5l (100× objective).

[12] = tested on: HL60 cells; experiment: Cytofluorimetric analysis of cell surface markers; assay type: cell-based, human; conditions: HL60, NEV 450 μM, 4 days
Excerpt: (§2) The induction of CD11b is associated with granulocytic differentiation, CD14 is considered a monocytic specific antigen and CD15 is a myelomonocytic antigen. Simultaneous induction of CD14 and CD11b relates to monocytic differentiation. […] In nevirapine-treated NB4 and HL60 cells, a strong induction of expression of CD15, and, to a lesser degree, CD11b and CD14 markers was detected.

[13] = tested on: NB4 cells; experiment: Cytofluorimetric analysis of cell surface markers; assay type: cell-based, human; conditions: NB4, NEV 450 μM, 4 days
Excerpt: as §2

[14] = tested on: HL60 cells; experiment: Growth, viable cell count; assay type: cell-based, human; conditions: HL60, Nev 350 μM, 4 days
[15] = tested on: AML #2; experiment: Growth, viable cell count; assay type: cell-based, human; conditions: AML #2, Nev 350 μM, 4 days
[16] = tested on: HL60 cells; experiment: NBT dye reduction assay; assay type: cell-based, human; conditions: HL60, Nev 350 μM, 4 days
[17] = tested on: AML #1; experiment: NBT dye reduction assay; assay type: cell-based, human; conditions: AML #1, Nev 350 μM, 4 days
[18] = tested on: F9 cells; experiment: Semi-quantitative RT-PCR of cell cycle regulatory genes; assay type: cell-based, murine; conditions: nevirapine compared to non-exposed F9 cultures
Excerpt: FIG. 7B: Quantitative variations in gene expression. RT-PCR products hybridized with internal oligonucleotides were quantified by densitometry. […] Dark histograms represent the mean value, and light histograms the standard deviation, from at least three experiments for each gene. […] We examined a set of genes encoding D-type cyclins; growth inhibitors; modulators of apoptosis; and housekeeping proteins.

[19] = tested on: Kasumi-1 cell line and primary blasts from two AML patients; experiment: Cell cycle in myeloid leukemia cells poorly sensitive to RA; assay type: cell-based, human; conditions: nevirapine treatment, data not shown

In the case of `Cc1ccnc2c1NC(=O)c1cccnc1N2C1CC1` [nevirapine, 5,11-dihydro-11-cyclopropyl-4-methyl-6H-dipyrido-[3,2-b:2′,3′-e][1,4]diazepin-6-one], the “development of early mouse embryos” value [1] is reported as “early and effective developmental arrest”, the “effectiveness of proliferation suppression compared with F9” value [2] is reported as “comparable effectiveness” and the “cells with a G0/G1 DNA content” value [3] is reported as “accumulated”. The “cells with a G0/G1 DNA content” value [4] was “accumulated”, the “cells with a G0/G1 DNA content” value [5] was “accumulated” and the “cyclin D1 levels” value [6] was “substantial decrease”. For the same compound, the “cyclin D1 levels” value [7] was “substantial decrease”, the “cyclin D1 levels” value [8] was “substantial decrease” and the “cyclin D1 levels” value [9] was “substantial decrease”. The “myosin synthesis in isolated myoblasts” value [10] was “already activated”, the “synthesis of collagen type IV(α1) chain” value [11] was “increased synthesis” and the “CD11b mean fluorescence intensity” value [12] was 16.6 AU. For the same compound, the “CD14 mean fluorescence intensity” value [12] was 45.3 AU, the “CD15 mean fluorescence intensity” value [12] was 1298.1 AU and the “CD11b mean fluorescence intensity” value [13] was 10.1 AU. For the same compound, the “CD14 mean fluorescence intensity” value [13] was 23.1 AU, the “CD15 mean fluorescence intensity” value [13] was 196.3 AU and the “Viable cells N^0 × 10^5” value [14] was 4.7 ± 1.1 × 10^5. The “Viable cells N^0 × 10^5” value [15] was 1.2 ± 0.1 × 10^5, the “NBT+ (%)” value [16] was 37.8 ± 2.5% and the “NBT+ (%)” value [17] was 19.5 ± 0.7%. For the same compound, the Bcl-2 expression [18] was “Up-regulation”, the “Cyclin D3 expression” value [18] was “down-regulated” and the Rb-2/p130 expression [18] was “Up-regulation”. For the same compound, the “cyclin D1 gene down-regulation” value [18] was 7 fold, the “expression of housekeeping genes (β-actin, GAPDH)” value [18] was “unaffected” and the “p16^INK4a up-regulation” value [18] was ~8 fold. For the same compound, the “p27^Kip1 expression” value [18] was “Up-regulation”, the p53 expression [18] was “unaffected” and the “accumulation of cells in the G1 phase of the cell cycle” value [19] was “modest yet constant accumulation”.
